Reference: patent publication US20090239891A1 (priority 2006, published 2009)

Test: Analgesic effect (% MPE) by tail flick method after intravenous injection
Type: in vivo
Conditions: mice

In the case of buprenorphine hydrochloride, the “% MPE” value (0.08 hours after i.v. 2.4 mg/kg) is reported as 0%, the “% MPE” value (0.25 hours after i.v. 2.4 mg/kg) is reported as 53.7% and the “% MPE” value (0.5 hours after i.v. 2.4 mg/kg) is reported as 96.3%. For the same substance, the “% MPE” value (1 hour after i.v. 2.4 mg/kg) was 100%, the “% MPE” value (2 hours after i.v. 2.4 mg/kg) was 77.4% and the “% MPE” value (3 hours after i.v. 2.4 mg/kg) was 93.3%. For the same substance, the “% MPE” value (5 hours after i.v. 2.4 mg/kg) was 100%, the “% MPE” value (7 hours after i.v. 2.4 mg/kg) was 72.7% and the “% MPE” value (9 hours after i.v. 2.4 mg/kg, hydrochloride, 2.4 mg/kg) was 54%. For the same substance, the “% MPE” value (9 hours after i.v. 2.4 mg/kg, listed as buprenorphine, hydrochloride, 2.4 mg/kg) was 54.4%, the “% MPE” value (12 hours after i.v. 2.4 mg/kg, hydrochloride, 2.4 mg/kg) was 0% and the “% MPE” value (12 hours after i.v. 2.4 mg/kg, listed as buprenorphine, hydrochloride, 2.4 mg/kg) was 8.1%. The “% MPE” value (18 hours after i.v. 2.4 mg/kg) was 0%, the “% MPE” value (24 hours after i.v. 2.4 mg/kg) was 0% and the “onset of analgesic effect” value (after i.v. 2.4 mg/kg) was 15 min. For the same substance, the “duration of analgesic effect” value (after i.v. bolus 2.4 mg/kg) was 9 h and the analgesic effect observed (between 12 and 24 hours after i.v. 2.4 mg/kg) was “No analgesic effect”.
